Reference: ChEMBL document CHEMBL4028893, “Discovery and Optimization of Potent, Cell-Active Pyrazole-Based Inhibitors of Lactate Dehydrogenase (LDH)” (J Med Chem, 2017)
Calls of active or inactive are those of the source. No cut-off for these calls is given here.

Experiments:
Mus musculus [1] = test: Clearance in CD1 mouse plasma at 2 mg/kg, iv measured over 24 hrs post dose by LC/MS/MS analysis; format: ADME, organism-based; details: in vivo
[2] = target: Isocitrate dehydrogenase [NADP] cytoplasmic (Homo sapiens, UniProt O75874); test: Inhibition of wild type IDH1 (unknown origin) using isocitrate as substrate preincubated for 30 mins followed by substrate addition in presence of NADP+ measured up to 5 mins by resorufin-based fluorescence assay
Sequence of Isocitrate dehydrogenase [NADP] cytoplasmic (O75874 whole entry): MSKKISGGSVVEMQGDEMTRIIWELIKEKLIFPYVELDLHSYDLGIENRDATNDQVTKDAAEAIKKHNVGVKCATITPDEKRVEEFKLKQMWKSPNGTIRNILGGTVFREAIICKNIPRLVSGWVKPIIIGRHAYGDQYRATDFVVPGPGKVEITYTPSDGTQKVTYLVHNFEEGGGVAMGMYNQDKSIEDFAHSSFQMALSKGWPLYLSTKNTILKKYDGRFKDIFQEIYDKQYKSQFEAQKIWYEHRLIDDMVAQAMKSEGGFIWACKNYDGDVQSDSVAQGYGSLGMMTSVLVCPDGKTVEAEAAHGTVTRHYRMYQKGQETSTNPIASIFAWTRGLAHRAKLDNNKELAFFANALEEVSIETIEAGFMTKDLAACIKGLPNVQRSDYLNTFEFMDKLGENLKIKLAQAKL

[3] = Drug level in human A673 cells by LC-MS/MS analysis; format: ADME, cell-based
[4] = Drug level in human MIAPaCa2 cells by LC-MS/MS analysis; format: ADME, cell-based; details: mia paca-2
MIA PaCa-2 [5] = test: Cytoxicity against human MIAPaCa2 cells assessed as cell growth inhibition at 20 uM after 48 hrs by CellTiter-Glo assay; format: functional, cell-based
Liver [6] = test: Drug metabolism in mouse liver microsomes assessed as glucuronidated metabolite formation measured over 90 mins in presence of NADPH/UDPGA; format: ADME, microsome
Liver [7] = test: Drug metabolism in human liver microsomes assessed as glucuronidated metabolite formation measured over 90 mins in presence of NADPH/UDPGA; format: ADME, microsome
Mus musculus [8] = test: AUClast in CD1 mouse plasma at 2 mg/kg, iv measured over 24 hrs post dose by LC/MS/MS analysis; format: ADME, organism-based; design: dose 2 mg/kg, time 0 - last, route intravenous; details: in vivo
Mus musculus [9] = test: Volume of distribution at steady state in CD1 mouse plasma at 2 mg/kg, iv measured over 24 hrs post dose by LC/MS/MS analysis; format: ADME, organism-based; details: in vivo
Mus musculus [10] = test: Cmax in CD1 mouse plasma at 50 mg/kg, po measured over 24 hrs post dose by LC/MS/MS analysis; format: ADME, organism-based; design: dose 50 mg/kg, route oral; details: in vivo
Mus musculus [11] = test: AUClast in CD1 mouse plasma at 50 mg/kg, po measured over 24 hrs post dose by LC/MS/MS analysis; format: ADME, organism-based; design: dose 50 mg/kg, time 0 - last, route oral; details: in vivo
Mus musculus [12] = test: Oral bioavailability in CD1 mouse plasma at 50 mg/kg measured over 24 hrs post dose by LC/MS/MS analysis; format: ADME, organism-based; details: in vivo
A673 [13] = test: Cytotoxicity against human A673 cells after 48 hrs by CellTiter-Glo assay; details: A673, 48 h
A673 [14] = test: Cytotoxicity against human A673 cells assessed as long term cell growth inhibition measured every 4 hrs for 120 hrs by incucyte zoom live cell analysis; format: functional, cell-based
L-lactate dehydrogenase [15] = target: T1, L-lactate dehydrogenase (Homo sapiens, UniProt V9HWB9); test: Inhibition of LDH in human MIAPaCa2 cells assessed as reduction in lactate production preincubated for 2 hrs measured after 30 mins by high throughput fluorescence assay; format: cell-based
[16] = Inhibition of pig heart MDH using malic acid as substrate preincubated for 10 mins followed by substrate addition measured up to 5 mins by resorufin-based fluorescence assay; design: species or system Sus scrofa
L-lactate dehydrogenase [17] = target: T1, L-lactate dehydrogenase; test: Inhibition of LDH in human A673 cells assessed as reduction in lactate production preincubated for 2 hrs measured after 30 mins by high throughput fluorescence assay; format: cell-based
MIA PaCa-2 [18] = test: Cytotoxicity against human MIAPaCa2 cells after 48 hrs by CellTiter-Glo assay; details: MIA PaCa-2, 48 h
MIA PaCa-2 [19] = test: Cytotoxicity against human MIAPaCa2 cells assessed as long term cell growth inhibition measured every 4 hrs for 120 hrs by incucyte zoom live cell analysis; format: functional, cell-based
[20] = target: L-lactate dehydrogenase B chain (Homo sapiens, UniProt P07195); test: Inhibition of human erythrocytes LDHB using sodium pyruvate as substrate after 5 mins in presence of […] by diaphorase/resazurin based fluorescence assay
Sequence of L-lactate dehydrogenase B chain (P07195 whole entry): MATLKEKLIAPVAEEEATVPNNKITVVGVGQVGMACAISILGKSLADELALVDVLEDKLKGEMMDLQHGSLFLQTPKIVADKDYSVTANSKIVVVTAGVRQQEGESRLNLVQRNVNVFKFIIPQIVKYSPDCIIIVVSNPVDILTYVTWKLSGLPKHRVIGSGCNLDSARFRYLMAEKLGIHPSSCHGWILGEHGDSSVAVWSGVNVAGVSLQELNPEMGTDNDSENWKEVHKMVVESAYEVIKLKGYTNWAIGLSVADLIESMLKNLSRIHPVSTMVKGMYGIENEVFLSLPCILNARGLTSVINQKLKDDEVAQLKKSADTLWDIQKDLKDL

[21] = target: T2, L-lactate dehydrogenase A chain (Homo sapiens, UniProt P00338)
Description: (§1) Inhibition of human liver LDHA using sodium pyruvate as substrate after 5 mins in presence of NAPDH and in absence of EDTA by diaphorase/resazurin based fluorescence assay

[22] = target: T2, L-lactate dehydrogenase A chain; remark: listed apart in the source
Description: Inhibition of human liver LDHA using sodium pyruvate as substrate after 5 mins in presence of NAPDH and EDTA by diaphorase/resazurin based fluorescence assay

[23] = target: T2, L-lactate dehydrogenase A chain; remark: listed apart in the source
[24] = target: T2, L-lactate dehydrogenase A chain; remark: listed apart in the source
Description: as §1

NS(=O)(=O)c1ccc(Cc2c(-c3cccc(-c4ccccc4)c3)nn(-c3nc(C(=O)O)cs3)c2CC2CC2)cc1
CL (Mus musculus [1]): 294 L/h/kg
IC50 [2]: 29.8 µM
Drug uptake [3]: Active
Drug uptake [4]: Active
growth inhibition (GI) (MIA PaCa-2 [5]): Active
Drug metabolism (Liver [6]): Metabolite_Notdetected
Drug metabolism (Liver [7]): Metabolite_Notdetected
AUClast (Mus musculus [8]): 190 nM·h
Vdss (Mus musculus [9]): 27 L/kg
Cmax (Mus musculus [10]): 1.78 µM
AUClast (Mus musculus [11]): 2500 nM·h
F (Mus musculus [12]): 50%

COc1ncc(-c2ccc3c(Nc4cc(Oc5cc(F)cc(F)c5)cc(C(=O)O)c4)c(S(=O)(=O)NC4CC4)cnc3c2)c(OC)n1
IC50 (A673 [13]): > 57 µM
IC50 (A673 [14]): 0.84 µM
IC50 (L-lactate dehydrogenase [15]): 12.6 µM
IC50 [16]: 37.8 µM
IC50 [2]: > 57 µM
IC50 (L-lactate dehydrogenase [17]): 14.5 µM
IC50 (MIA PaCa-2 [18]): 28.4 µM
IC50 (MIA PaCa-2 [19]): 1.37 µM
Drug uptake [3]: Active
Drug uptake [4]: Active

NS(=O)(=O)c1ccc(Cc2cn(-c3nc(C(=O)O)cs3)nc2-c2cccc(-c3ccccc3)c2)cc1
IC50 [16]: 48.6 µM
IC50 [2]: 47.4 µM
Drug uptake [3]: Active
Drug uptake [4]: Active

NS(=O)(=O)c1ccc(Cc2c(-c3ccccc3)nn(-c3nc(C(=O)O)cs3)c2-c2ccncc2)cc1
IC50 [16]: > 57 µM
IC50 [20]: 2.82 µM
IC50 [2]: > 57 µM
Drug uptake [3]: Active
Drug uptake [4]: Active
IC50 [21]: 6.23 µM
IC50 [22]: 6.23 µM

NS(=O)(=O)c1ccc(Nc2cn(-c3nc(C(=O)O)cs3)nc2-c2ccccc2)cc1
IC50 [16]: > 57 µM
IC50 [2]: > 57 µM
Drug uptake [3]: Active
Drug uptake [4]: Active

NS(=O)(=O)c1ccc(Cc2cn(-c3nc(C(=O)O)cs3)nc2-c2ccccc2)cc1
IC50 [16]: > 57 µM
IC50 [2]: > 57 µM
Drug uptake [3]: Active
Drug uptake [4]: Active
IC50 [21]: 0.177 µM
IC50 [22]: 0.176 µM

NS(=O)(=O)c1ccc(Cc2c(-c3ccccc3)nn(-c3nc(C(=O)O)cs3)c2-c2cccnc2)cc1
IC50 [16]: > 57 µM
IC50 [2]: > 57 µM
Drug uptake [3]: Active
Drug uptake [4]: Active

Cc1nc2ccc(NC(=O)CCNC(=O)CCCc3ccc(CC(C(=O)O)C(=O)O)cc3)cc2s1
IC50 (A673 [14]): > 20 µM
IC50 [16]: > 57 µM
IC50 [20]: 9.2 µM
IC50 [2]: > 57 µM
IC50 (MIA PaCa-2 [19]): > 20 µM
Drug uptake [3]: Active
Drug uptake [4]: Active
EC50 [23]: 1.6 µM
IC50 [22]: 1.34 µM

O=C1N[C@](c2ccc(N3CCOCC3)cc2)(c2ccsc2)CC(O)=C1Sc1ccccc1Cl
IC50 [16]: > 57 µM
IC50 [2]: > 57 µM
Drug uptake [3]: Active
Drug uptake [4]: Active

NS(=O)(=O)c1ccc(Cc2c(-c3ccccc3)nn(-c3nc(C(=O)O)cs3)c2C2CC2)cc1
IC50 [16]: 37.8 µM
IC50 [2]: > 57 µM
Drug uptake [3]: Active
Drug uptake [4]: Active

NS(=O)(=O)c1ccc(Cc2cn(-c3nc(C(=O)O)cs3)nc2-c2ccc(F)c(F)c2)cc1
IC50 (A673 [13]): > 57 µM
IC50 [16]: > 57 µM
IC50 [20]: 0.129 µM
IC50 [2]: > 57 µM
Drug uptake [3]: Active
Drug uptake [4]: Active
IC50 [21]: 0.095 µM
IC50 [22]: 0.095 µM

NS(=O)(=O)c1ccc(Cc2c(-c3cccc(-c4ccccc4)c3)nn(-c3nc(C(=O)O)cs3)c2O)cc1
IC50 [16]: > 57 µM
IC50 [2]: 47.4 µM
Drug uptake [3]: Active
Drug uptake [4]: Active

NS(=O)(=O)c1ccc(Cc2c(-c3ccccc3)nn(-c3nc(C(=O)O)cs3)c2CC2CC2)cc1
IC50 [16]: > 57 µM
IC50 [2]: 47.4 µM
Drug uptake [3]: Active
Drug uptake [4]: Active

NS(=O)(=O)c1ccc(Cc2c(-c3cccc(Br)c3)nn(-c3nc(C(=O)O)cs3)c2O)cc1
IC50 [20]: 1.51 µM
IC50 [2]: > 57 µM
Drug uptake [3]: Active
Drug uptake [4]: Active

NS(=O)(=O)c1ccc(Cc2c(-c3ccc(F)c(F)c3)nn(-c3nc(C(=O)O)cs3)c2O)cc1
IC50 (A673 [13]): > 57 µM
IC50 [16]: > 57 µM
IC50 [2]: > 57 µM
IC50 (MIA PaCa-2 [18]): > 57 µM
Drug uptake [3]: Active
Drug uptake [4]: Active

NS(=O)(=O)c1ccc(Nc2cn(-c3nc(C(=O)O)cs3)nc2-c2cccc(-c3ccccc3)c2)cc1
IC50 [16]: 37.8 µM
IC50 [2]: > 57 µM
Drug uptake [3]: Active
Drug uptake [4]: Active

O=C(O)c1csc(-n2nc(-c3ccccc3)cc2C(F)(F)F)n1
inhibition (L-lactate dehydrogenase [15]): inactive
inhibition (L-lactate dehydrogenase [17]): inactive
EC50 [23]: > 100 µM
IC50 [21]: 22.2 µM
IC50 [22]: 28.8 µM
Efficacy [24]: 40 to 60%

NS(=O)(=O)c1ccc(Cc2c(-c3cccc(-c4ccccc4)c3)nn(-c3nc(C(=O)O)cs3)c2C2CC2)cc1
CL (Mus musculus [1]): 227 L/h/kg
IC50 [16]: 42.4 µM
IC50 [2]: 33.5 µM
Drug uptake [3]: Active
Drug uptake [4]: Active
Drug metabolism (Liver [6]): Metabolite_Notdetected
Drug metabolism (Liver [7]): Metabolite_Notdetected
AUClast (Mus musculus [8]): 260 nM·h
Vdss (Mus musculus [9]): 5.6 L/kg
Cmax (Mus musculus [10]): 1.2 µM
AUClast (Mus musculus [11]): 3200 nM·h
F (Mus musculus [12]): 49%

Nc1c(Cc2ccc(S(N)(=O)=O)cc2)c(-c2cccc(-c3ccccc3)c2)nn1-c1nc(C(=O)O)cs1
IC50 [16]: 26.8 µM
IC50 [2]: > 57 µM
Drug uptake [3]: Active
Drug uptake [4]: Active

NS(=O)(=O)c1ccc(Cc2c(-c3cccc(-c4ccccc4)c3)nn(-c3nc(C(=O)O)cs3)c2C(F)(F)F)cc1
IC50 [16]: 48.6 µM
IC50 [2]: 33.5 µM
Drug uptake [3]: Active
Drug uptake [4]: Active
